Experimental data published in patent US20230174571A1, “METHOD OF TREATING SHIP1-MEDIATED DISEASES USING PELOROL DERIVATIVES” (Zebrapeutics Inc., priority 2020, published 2023).

Assays:
SHIP1 = target: T1, SHIP1 (Mus musculus, UniProt Q9ES52); settings: binds to the same SHIP1 C2 domain as PI(3,4)P2; Ong et al., 2007; cited from earlier work
T1 sequence (Q9ES52 1-1191): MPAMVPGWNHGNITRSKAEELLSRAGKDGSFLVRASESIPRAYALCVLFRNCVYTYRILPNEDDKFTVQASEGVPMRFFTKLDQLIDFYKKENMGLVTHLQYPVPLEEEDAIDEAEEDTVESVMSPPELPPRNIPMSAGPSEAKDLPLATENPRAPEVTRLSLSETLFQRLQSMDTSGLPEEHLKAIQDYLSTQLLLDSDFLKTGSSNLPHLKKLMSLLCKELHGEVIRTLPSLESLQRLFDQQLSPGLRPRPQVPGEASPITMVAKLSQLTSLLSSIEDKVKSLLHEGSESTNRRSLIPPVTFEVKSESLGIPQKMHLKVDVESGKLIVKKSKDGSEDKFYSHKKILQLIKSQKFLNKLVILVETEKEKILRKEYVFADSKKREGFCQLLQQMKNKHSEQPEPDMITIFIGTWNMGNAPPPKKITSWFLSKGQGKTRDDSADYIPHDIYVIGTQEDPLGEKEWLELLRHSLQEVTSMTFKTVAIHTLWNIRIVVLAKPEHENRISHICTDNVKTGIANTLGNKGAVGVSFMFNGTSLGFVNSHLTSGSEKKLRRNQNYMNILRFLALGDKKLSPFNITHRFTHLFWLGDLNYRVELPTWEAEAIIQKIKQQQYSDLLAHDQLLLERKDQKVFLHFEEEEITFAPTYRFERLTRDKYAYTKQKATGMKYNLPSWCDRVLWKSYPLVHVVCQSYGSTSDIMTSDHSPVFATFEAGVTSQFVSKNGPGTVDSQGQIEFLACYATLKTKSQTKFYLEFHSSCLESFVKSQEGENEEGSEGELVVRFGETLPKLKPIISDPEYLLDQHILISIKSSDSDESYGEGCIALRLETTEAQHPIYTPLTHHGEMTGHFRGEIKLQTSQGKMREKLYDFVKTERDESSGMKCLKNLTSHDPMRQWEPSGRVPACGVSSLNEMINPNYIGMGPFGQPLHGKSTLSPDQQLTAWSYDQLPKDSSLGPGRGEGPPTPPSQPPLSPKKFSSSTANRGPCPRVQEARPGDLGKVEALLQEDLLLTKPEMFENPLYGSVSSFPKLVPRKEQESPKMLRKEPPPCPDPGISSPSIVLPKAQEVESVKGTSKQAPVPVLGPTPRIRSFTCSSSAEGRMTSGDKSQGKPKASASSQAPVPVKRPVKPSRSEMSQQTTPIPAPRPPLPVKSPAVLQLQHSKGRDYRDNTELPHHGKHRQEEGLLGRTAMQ

[1] = system: SHIP1 (full length SHIP1, PPAC, PAC2); test: In vitro phosphatase assay; format: biochemical; settings: full length SHIP1, 293T derived PPAC, E. coli derived PPAC, and PAC2; 50 μM IP4
Protocol: In vitro phosphatase assay. The phosphatase assay was performed in 96-well microtiter plates with 10 ng of enzyme/well in a total volume of 25 μL in 20 mM Tris-HCl, pH 7.4, 150 mM NaCl, 0.05% Tween-20, 10 mM MgCl2 as described (Ong et al., 2007). Enzyme was incubated with or compound I-1 (dissolved in ethanol) for 10 minutes at 23° C., before the addition of 50 μM of inositol-1,3,4,5-tetrakisphosphate (IP4) (Echelon Bioscience Inc., Salt Lake City, Utah). The reaction was allowed to proceed for 10 minutes at 37° C. and the amount of inorganic phosphate released was assessed by the addition of Malachite
Green reagent and absorbance measurement at 650 nm. For enzyme kinetic determination, different concentrations of IP4 (0-300 μM) were used and the reactions were stopped at different time points. Initial velocities were calculated, and Kcat and KM were determined using GraphPad 6 software.

MM.1S cells = test: MM.1S tumour model in NOD/SCID mice; format: in vivo, mouse; settings: NOD/SCID mice bearing MM.1S tumours; administered through drinking water
Protocol: The IBD model mice were dosed with 2 or 3 mg/kg of compounds of the present disclosure, for example compound I-1. The MM model mice were dosed with about 20 to about 50 mg/kg of compounds of the present disclosure, for example compound I-1. The appropriate amount of 5 mg/mL PBS solution with 5% v/v Cremophore EL/5% v/v ethanol as prepared above was diluted into the mice's drinking water.
MM.1S cells expressing firefly luciferase were injected along with Matrigel basement membrane into the upper flank of NOD/SCID mice and allowed to establish for two weeks. Compound I-1 or vehicle (n=4) were administered through drinking water (as described in General Methods).

SMILES: Cc1cc(O)cc2c1C1(C)CCC3C(C)(C)CCCC3(C)C1C2 (stereo not drawn) [Compound I-1]
- SHIP1 functional activity (SHIP1): increases SHIP1 functional activity
- activation of phosphatase activity [1]: could be activated
- tumour mass (bioluminescence imaging) (MM.1S cells): effectively reduces tumour mass
